Where two headings read alike, the source gives them in different places.
Key:
[1] = target: T1, wild type HIV-1 protease (Human immunodeficiency virus type 1 group M subtype B, UniProt P04585); assay: Ki against wild type (WT) HIV-1 protease; format: biochemical
T1 construct: over 45 of the 99 amino acids of the HIV protease monomer

[2] = target: HIV-1 protease Mutant 8 (Human immunodeficiency virus type 1, UniProt P04585); assay: Ki against HIV-1 protease Mutant 8; format: biochemical
[3] = target: HIV-1 protease Mutant 9 (Human immunodeficiency virus type 1, UniProt P04585); assay: Ki against HIV-1 protease Mutant 9; format: biochemical
[4] = tested on: HIV-1 isolates, WT; assay: In vitro drug sensitivity of HIV-1 laboratory isolates, WT; format: cell-based
Experimental: (§1) In Vitro Drug Sensitivity of HIV-1 Laboratory Isolates to PIs
(§2) The sensitivities of HIV-1 isolates against compounds of the invention were determined as previously described with minor modifications (Shiraska et al., Proc. Natl. Acad. Sci. USA, 92, 2398-2402 (1995)).

[5] = tested on: HIV-1 isolates, Mutant 8; assay: In vitro drug sensitivity of HIV-1 laboratory isolates, Mutant 8; format: cell-based
Experimental: as §1, §2

[6] = tested on: HIV-1 isolates, Mutant 9; assay: In vitro drug sensitivity of HIV-1 laboratory isolates, Mutant 9; format: cell-based
Experimental: as §1, §2

[7] = Human immunodeficiency virus 1, read-out: IC50 Mutant 8
[8] = Human immunodeficiency virus 1, read-out: IC50 Mutant 9
[9] = Mutant 8, read-out: IC50 Mutant 8
[10] = Mutant 9, read-out: IC50 Mutant 9
[11] = Human immunodeficiency virus 1, HIV-1 isolate WT

Row | Compound | Ki ([1]; WT) [nM] | Ki ([2]; Mutant 8) [nM] | Ki ([3]; Mutant 9) [nM] | IC50 ([4]; Human immunodeficiency virus 1) [nM] | IC50 [5, 7] [nM] | IC50 [6, 8] [nM] | IC50 ([4]; WT) [nM] | IC50 [5, 9] [nM] | IC50 [6, 10] [nM] | Ki ([1]; wild type HIV-1 protease) [nM] | Ki ([2]; HIV-1 protease Mutant 8) [nM] | Ki ([3]; HIV-1 protease Mutant 9) [nM] | IC50 [4, 11] [nM]
1 | CC(=O)OCc1coc2ccc(S(=O)(=O)N(CC(C)C)CC(O)C(Cc3ccccc3)NC(=O)OC3COC4OCCC34)cc12 (stereo not drawn) [Compound 122] | < 0.1 | < 0.3 | 0.27 | 5.9 | 11 | 110 |  |  |  |  |  |  | 
2 | COCc1coc2ccc(S(=O)(=O)N(CC(C)C)CC(O)C(Cc3ccccc3)NC(=O)OC3COC4OCCC34)cc12 (stereo not drawn) [Compound 123] | 0.13 | < 0.3 | 0.22 | 4 | 19 | 240 |  |  |  |  |  |  | 
3 | CC(C)CN(CC(O)C(Cc1ccccc1)NC(=O)OC1COC2OCCC12)S(=O)(=O)c1ccc2occ(CO)c2c1 (stereo not drawn) [Compound 124] | < 0.1 | < 0.3 | 0.26 | 8.7 | 12 | 130 |  |  |  |  |  |  | 
4 | CC(C)CN(C[C@@H](O)[C@H](Cc1ccccc1)NC(=O)OC1COC2OCCC12)S(=O)(=O)c1ccc2occ(CNC(=O)c3ccco3)c2c1 (stereo partly drawn) [Compound 125] | < 0.1 | < 0.3 | < 0.1 |  |  |  | 5 | 9 | 31 |  |  |  | 
5 | CCOC(=O)N(CCOC)Cc1coc2ccc(S(=O)(=O)N(CC(C)C)C[C@@H](O)[C@H](Cc3ccccc3)NC(=O)OC3COC4OCCC34)cc12 (stereo partly drawn) [Compound 126] | < 0.1 | < 0.3 | 0.92 |  |  |  | 4 | 60 | 250 |  |  |  | 
6 | CC(C)CN(CC(O)C(Cc1ccccc1)NC(=O)OC1COC2OCCC12)S(=O)(=O)c1ccc2onc(CN)c2c1 (stereo not drawn) [Compound 203] |  |  |  |  | 70 | 120 |  |  |  | < 0.1 | < 0.3 | 0.71 | 22
7 | CC(C)CN(CC(O)C(Cc1ccccc1)NC(=O)OC1COC2OCCC12)S(=O)(=O)c1ccc2onc(CNS(=O)(=O)C(C)C)c2c1 (stereo not drawn) [Compound 204] |  |  |  |  | 31 | 83 |  |  |  | < 0.1 | < 0.3 | 0.14 | 6.5
8 | CC(=O)OCc1noc2ccc(S(=O)(=O)N(CC(C)C)CC(O)C(Cc3ccccc3)NC(=O)OC3COC4OCCC34)cc12 (stereo not drawn) [Compound 205] |  |  |  |  | 23 | 68 |  |  |  | < 0.1 | < 0.3 | 0.23 | 10
9 | CCOC(=O)C(C)NCc1noc2ccc(S(=O)(=O)N(CC(C)C)CC(O)C(Cc3ccccc3)NC(=O)OC3COC4OCCC34)cc12 (stereo not drawn) [Compound 206] |  |  |  |  | 30 | 160 |  |  |  | < 0.1 | < 0.3 | 0.33 | 5
10 | CC(C)CN(CC(O)C(Cc1ccccc1)NC(=O)OC1COC2OCCC12)S(=O)(=O)c1ccc2onc(CNS(C)(=O)=O)c2c1 (stereo not drawn) [Compound 207] |  |  |  |  | 28 | 54 |  |  |  | < 0.1 | < 0.3 | 0.34 | 22
11 | CCCC[S+]([O-])Cc1noc2ccc(S(=O)(=O)N(CC(C)C)CC(O)C(Cc3ccccc3)NC(=O)OC3COC4OCCC34)cc12 (stereo not drawn) [Compound 208] |  |  |  |  | 36 | 60 |  |  |  | < 0.1 | < 0.3 | < 0.1 | 3.9
12 | CC(C)CN(CC(O)C(Cc1ccccc1)NC(=O)OC1COC2OCCC12)S(=O)(=O)c1ccc2onc(CSC(C)C)c2c1 (stereo not drawn) [Compound 209] |  |  |  |  | 50 | 210 |  |  |  | < 0.1 | < 0.3 | 2.3 | 3.5
13 | CC(C)CN(CC(O)C(Cc1ccccc1)NC(=O)OC1COC2OCCC12)S(=O)(=O)c1ccc2onc(CN(C)S(C)(=O)=O)c2c1 (stereo not drawn) [Compound 210] |  |  |  |  | 51 | 300 |  |  |  | < 0.1 | < 0.3 | 1.3 | 3
14 | Cc1ccc(S(=O)(=O)N(C)Cc2noc3ccc(S(=O)(=O)N(CC(C)C)CC(O)C(Cc4ccccc4)NC(=O)OC4COC5OCCC45)cc23)cc1 (stereo not drawn) [Compound 211] |  |  |  |  | 51 | 300 |  |  |  | < 0.1 | < 0.3 | 1.7 | 2.1
15 | CC(C)CN(CC(O)C(Cc1ccccc1)NC(=O)OC1COC2OCCC12)S(=O)(=O)c1ccc2onc(CNC(=O)OC(C)C)c2c1 (stereo not drawn) [Compound 212] |  |  |  |  | 30 | > 400 |  |  |  | < 0.1 | < 0.3 | 0.34 | 5
16 | CC(C)CN(CC(O)C(Cc1ccccc1)NC(=O)OC1COC2OCCC12)S(=O)(=O)c1ccc2onc(CO)c2c1 (stereo not drawn) [Compound 213] |  |  |  |  | 30 | 55 |  |  |  | < 0.1 | < 0.3 | 0.15 | 7
17 | CC(=O)NCc1noc2ccc(S(=O)(=O)N(CC(C)C)CC(O)C(Cc3ccccc3)NC(=O)OC3COC4OCCC34)cc12 (stereo not drawn) [Compound 214] |  |  |  |  | 28 | 31 |  |  |  | < 0.1 | < 0.3 | < 0.1 | 42
18 | CC(C)CN(CC(O)C(Cc1ccccc1)NC(=O)OC1COC2OCCC12)S(=O)(=O)c1ccc2onc(COC(=O)C(C)C)c2c1 (stereo not drawn) [Compound 215] |  |  |  |  | 15 | 55 |  |  |  | < 0.1 | < 0.3 | 0.75 | 11
19 | CC(C)CN(CC(O)C(Cc1ccccc1)NC(=O)OC1COC2OCCC12)S(=O)(=O)c1ccc2onc(Cn3ccnc3)c2c1 (stereo not drawn) [Compound 216] |  |  |  |  | 32 | 250 |  |  |  | < 0.1 | < 0.3 | 1.7 | 20
20 | CCOC(=O)NCc1noc2ccc(S(=O)(=O)N(CC(C)C)CC(O)C(Cc3ccccc3)NC(=O)OC3COC4OCCC34)cc12 (stereo not drawn) [Compound 217] |  |  |  |  | 30 | 20 |  |  |  | < 0.1 | < 0.3 | < 0.1 | 2.3
21 | CC(C)CN(CC(O)C(Cc1ccccc1)NC(=O)OC1COC2OCCC12)S(=O)(=O)c1ccc2onc(COC(=O)C(C)(C)C)c2c1 (stereo not drawn) [Compound 218] |  |  |  |  | 18 | 80 |  |  |  | < 0.1 | < 0.3 | 2 | 11
22 | COCCNCc1noc2ccc(S(=O)(=O)N(CC(C)C)CC(O)C(Cc3ccccc3)NC(=O)OC3COC4OCCC34)cc12 (stereo not drawn) [Compound 219] |  |  |  |  | 9 | 40 |  |  |  | < 0.1 | < 0.3 | 0.37 | 4
23 | CC(C)CN(CC(O)C(Cc1ccccc1)NC(=O)OC1COC2OCCC12)S(=O)(=O)c1ccc2onc(CNC(=O)C(C)C)c2c1 (stereo not drawn) [Compound 220] |  |  |  |  | 12 | 60 |  |  |  | < 0.1 | < 0.3 | 0.14 | 7
24 | CC(C)CN(CC(O)C(Cc1ccccc1)NC(=O)OC1COC2OCCC12)S(=O)(=O)c1ccc2onc(CNC(=O)c3ccccc3)c2c1 (stereo not drawn) [Compound 221] |  |  |  |  | 14 | 16 |  |  |  | < 0.1 | < 0.3 | < 0.1 | 7
25 | CCCOC(=O)NCc1noc2ccc(S(=O)(=O)N(CC(C)C)CC(O)C(Cc3ccccc3)NC(=O)OC3COC4OCCC34)cc12 (stereo not drawn) [Compound 222] |  |  |  |  | 12 | 45 |  |  |  | < 0.1 | < 0.3 | 0.19 | 3
